“Also recorded” adds a separate entry of the source. Structures can show the parent of a compound that is named as a salt. Where two headings read alike, the source gives them in different places.
Tests used:
[1] = target: SARS-CoV-2 nsp13 helicase (Severe acute respiratory syndrome coronavirus 2, UniProt P0DTD1); assay: biochemical; assay type: biochemical
[2] = target: T1, SARS-CoV-2 RdRp holoenzyme (Severe acute respiratory syndrome coronavirus 2, UniProt P0DTD1); assay: FRET-based RdRp strand displacement assay; assay type: biochemical
T1 construct: (Sf nsp12-3F/7L8 preincubated with Sf 7H8 at a 1:3 ratio); 3F (3xFlag) (C); made in house; host or cells: 'Sf', read as Spodoptera frugiperda insect cells (my inference from the prefix); details are in Bertolin et al

[3] = RNA (RdRp substrate), 0.3 mM each NTP, 0.02% Tween-20 in RdRp assay buffer
[4] = read-out: IC50 + 0.02% Tween-20
[5] = RNA (nsp13 substrate), 0.3 mM ATP, 0.02% Tween-20 in RdRp assay buffer
[6] = IC50 0.02% Tween-20 + (presence)
[7] = IC50 0.02% Tween-20 − (absence)
[8] = RNA (nsp13 substrate), 0.3 mM ATP, 0.02% Tween-20 in RdRp assay buffer, read-out: IC50 nsp13
[9] = RNA (RdRp substrate), 0.3 mM each NTP, 0.02% Tween-20 in RdRp assay buffer, read-out: IC50 RdRp

For `NC(Cc1cc(O)c(O)cc1O)C(=O)O` (racemic) [6-Hydroxy-DL-DOPA], the “IC50 + 0.02% Tween-20” value [1] was “Quenching” and the “IC50 No detergent” value [1] was “Quenching”.
In the case of `CN(C)CC[C@H](CSc1ccccc1)Nc1ccc(S(=O)(=O)NC(=O)c2ccc(N3CCC(C)(C)CC3)cc2)cc1[N+](=O)[O-]` [A-385358], the “IC50 RdRp” value [2, 3] is reported as “did not inhibit RdRp; also recorded: No inhibition”, the “IC50 nsp13” value [1] is reported as “No inhibition” and the IC50 [1, 4] is reported as > 250 µM. For the same compound, the IC50 ([1]; read-out: IC50 No detergent) was 3.3 µM.
For `CN(C)CC[C@H](CSc1ccccc1)Nc1ccc(S(=O)(=O)NC(=O)c2ccc(N3CCN(Cc4ccccc4-c4ccc(Cl)cc4)CC3)cc2)cc1[N+](=O)[O-]` [ABT-737], the “IC50 RdRp” value [2, 3] was “No inhibition”, the IC50 ([1]; IC50 + 0.02% Tween-20) was > 250 µM and the IC50 ([1]; IC50 No detergent) was 1.2 µM. For the same compound, the “IC50 nsp13” value [1, 5] was “No inhibition”.
For `CCN(CC)C(=O)c1ccc(C2=CC3(CCNCC3)Oc3cccc(O)c32)cc1` [ADL5859], the “IC50 + 0.02% Tween-20” value [1] was “No inhibition” and the IC50 ([1]; IC50 No detergent) was > 250 µM.
In the case of `Nc1ncnc2c1ncn2[C@@H]1O[C@H](COP(=O)(O)OP(=O)(O)OP(=O)(O)O)[C@@H](O)[C@H]1O` [ATP], the Km ([1]; 2 nM FH-nsp13, 200 nM DNA substrate, read-out: Km for ATP with the DNA substrate) is reported as 110 µM and the Km ([1]; 3 nM FH-nsp13, 200 nM RNA substrate, read-out: Km for ATP with the RNA substrate) is reported as 130 µM.
For `COc1ccc(-c2ccc3cc(C(=O)O)ccc3c2)cc1C12CC3CC(CC(C3)C1)C2` [Adapalene], the IC50 [2] was 20 µM, the IC50 [1, 6] was 5.5 µM and the IC50 [1, 7] was 1.3 µM. The IC50 ([1]; IC50 + 0.02% Tween-20) was 9.9 µM, the IC50 ([1]; IC50 No detergent) was 3.7 µM and the IC50 ([1]; IC50 nsp13) was 11 µM.
`Cc1cc(O[C@@H](CCC(F)(F)F)c2ccc(C(=O)NCCC(=O)O)cc2)cc(C)c1-c1ccc(C(C)(C)C)cc1` [Adomeglivant] was tested, and the IC50 [2] was 39 µM, the IC50 ([1]; IC50 + 0.02% Tween-20) was 103 µM and the IC50 ([1]; IC50 No detergent) was 5.3 µM. The IC50 [1, 8] was > 100 µM.
With `CC(C)c1cc(C(C)C)c(CC(=O)NS(=O)(=O)Oc2c(C(C)C)cccc2C(C)C)c(C(C)C)c1` [Avasimibe] the IC50 [2] was 18 µM, the “IC50 RdRp” value [2, 3] was “also inhibited RdRp in a similar fashion” and the IC50 [1, 6] was 17 µM. The IC50 [1, 7] was 1.3 µM, the IC50 ([1]; IC50 + 0.02% Tween-20) was 13 µM and the IC50 ([1]; IC50 No detergent) was 4 µM.
With `O=C1/C(=C/c2ccc(O)c(Br)c2)CN(Cc2ccccc2)C/C1=C\c1ccc(O)c(Br)c1` [CARM1-IN-1] the IC50 [2, 9] was > 100 µM, the IC50 [1, 8] was > 100 µM and the IC50 [1, 4] was 126 µM. The IC50 ([1]; read-out: IC50 No detergent) was 4.2 µM.
With `CO/N=C(\C(=O)N[C@@H]1C(=O)N2C(C(=O)O)=C(CSC(=O)c3ccco3)CS[C@H]12)c1csc(N)n1` [Ceftiofur HCl] the IC50 ([1]; IC50 + 0.02% Tween-20) was > 250 µM and the IC50 ([1]; IC50 No detergent) was > 250 µM.
`CC(C)(C[C@H]1CN(S(=O)(=O)c2cccc(C(F)(F)F)c2)c2cc(-c3cc(F)cc(OC(F)F)c3)ccc2O1)C(=O)O` [Cintirorgon] gave an IC50 [2, 9] of 36 µM, an IC50 [1, 6] of 41 µM and an IC50 [1, 7] of 2.1 µM. It also gave an IC50 ([1]; IC50 + 0.02% Tween-20) of 38 µM, an IC50 ([1]; IC50 No detergent) of 2.3 µM and an IC50 [1, 8] of 97 µM.
With `COc1cccc2c1C(=O)c1c(O)c3c(c(O)c1C2=O)C[C@@](O)(C(=O)CO)C[C@@H]3O[C@H]1C[C@H](N)[C@H](O)[C@H](C)O1` [Doxorubicin] the “IC50 + 0.02% Tween-20” value [1] was “Artifact” and the “IC50 No detergent” value [1] was “Artifact”.
In the case of `CC/C=C\C/C=C\C/C=C\C/C=C\C/C=C\CCCC(=O)O` [Eicosapentaenoic acid], the IC50 [2, 9] is reported as 29 µM, the IC50 ([1]; IC50 + 0.02% Tween-20) is reported as 69 µM and the IC50 ([1]; IC50 No detergent) is reported as 14 µM. It also gave an IC50 [1, 8] of 81 µM.
With `CCCCCCCC/C=C/CCCCCCCC(=O)O` [Elaidic acid] the “IC50 RdRp” value [2, 3] was “No inhibition”, the IC50 ([1]; IC50 + 0.02% Tween-20) was > 250 µM and the IC50 ([1]; IC50 No detergent) was 8.6 µM. The “IC50 nsp13” value [1, 5] was “No inhibition”.
`COc1cc2c(cc1Cc1cccc(Cl)c1F)c(=O)c(C(=O)O)cn2[C@H](CO)C(C)C` [Elvitegravir] was tested, and the IC50 ([1]; IC50 + 0.02% Tween-20) was > 250 µM, the IC50 ([1]; IC50 No detergent) was 22 µM and the “nsp13 inhibition and detergent sensitivity” value ([1]; presence or absence of non-ionic detergent) was “clear inhibition only in the absence of detergent”.
With `COC(=O)[C@@H]1CC2=CC(=O)CC[C@]2(C)[C@@]23O[C@@H]2C[C@@]2(C)[C@@H](CC[C@@]24CCC(=O)O4)[C@H]13` [Eplerenone] the “IC50 + 0.02% Tween-20” value [1] was “No inhibition” and the IC50 ([1]; IC50 No detergent) was > 250 µM.
`CC1=C(/C=C/C(C)=C/C=C/C(C)=C/C(=O)Nc2ccc(O)cc2)C(C)(C)CCC1` [Fenretinide] was tested, and the “IC50 RdRp” value [2, 3] was “No inhibition”, the IC50 [1, 6] was > 250 µM and the IC50 [1, 7] was 7.3 µM. The IC50 ([1]; IC50 + 0.02% Tween-20) was > 250 µM, the IC50 ([1]; IC50 No detergent) was 9.1 µM and the “IC50 nsp13” value [1, 5] was “No inhibition”.
In the case of `CC1(C)O[C@@H]2C[C@H]3[C@@H]4C[C@H](F)C5=CC(=O)C=C[C@]5(C)[C@@]4(F)[C@@H](O)C[C@]3(C)[C@]2(C(=O)CO)O1` [Fluocinolone Acetonide], the “IC50 + 0.02% Tween-20” value [1] is reported as “No inhibition” and the IC50 ([1]; IC50 No detergent) is reported as > 250 µM.

Reference: publication PMC8286831, “Identifying SARS-CoV-2 antiviral compounds by screening for small molecule inhibitors of nsp13 helicase” (Biochemical Journal, 2021)
